# Laboratory results from US11932658B2 (BRISTOL-MYERS SQUIBB COMPANY, priority 2016, dated 2024).
# Molecular target: T1, PAR4 (Homo sapiens, UniProt Q96RI0)
# T1 construct: expressed in transfected cells; host or cells: HEK293 PAR4 Clone 1.2A (BMS Arctic ID 383940)
# T1 sequence (Q96RI0 18-385): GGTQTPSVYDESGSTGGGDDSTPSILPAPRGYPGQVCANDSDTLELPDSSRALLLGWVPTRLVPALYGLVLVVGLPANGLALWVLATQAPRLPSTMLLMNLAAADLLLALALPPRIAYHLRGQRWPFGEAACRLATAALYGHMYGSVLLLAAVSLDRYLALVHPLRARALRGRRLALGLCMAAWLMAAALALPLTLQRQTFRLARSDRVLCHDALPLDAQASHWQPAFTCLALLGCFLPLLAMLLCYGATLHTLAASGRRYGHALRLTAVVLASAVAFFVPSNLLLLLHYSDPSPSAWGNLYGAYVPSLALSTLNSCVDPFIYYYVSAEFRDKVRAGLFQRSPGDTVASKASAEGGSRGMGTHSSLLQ
# Test: PAR4 FLIPR assay (antagonism of agonist peptide-induced calcium mobilization)
# Format: cell-based
# Source text: The FLIPR assay is an exemplary in vitro assay for measuring the activity of the PAR4 antagonists of the present invention. In this assay, intracellular calcium mobilization is induced in PAR4 expressing cells by a PAR4 agonist and calcium mobilization is monitored.
# HEK293 cells stably expressing PAR4 were generated by a standard method of transfection of human PAR4 (F2R23) cDNA expression vector and selected based on PAR4 protein expression or mRNA expression. […] These cells also express endogenous PAR1 and can elicit calcium signal upon stimulation with PAR1 agonist peptide. Therefore, the same cells were also used to determine selectivity against PAR1 and agonist activity for both receptors. Cells from HEK293 PAR4 Clone 1.2A (BMS Arctic ID 383940) were propagated and used for calcium mobilization studies.
# FLIPR-based calcium mobilization assay in HEK293 cells was used to measure PAR4 antagonism, agonism, and selectivity against PAR1. The activity of the PAR4 antagonists of the present invention were tested in PAR4 expressing cells by monitoring H-Ala-Phe(4-F)-Pro-Gly-Trp-Leu-Val-Lys-Asn-Gy-NH2-induced intracellular calcium mobilization. Counter screens for agonist activity and PAR1 antagonist activity were also performed. Briefly, PAR1/PAR4-expressing HEK293 cells were grown in DMEM (Life Technology, Grand Island, NY) containing 10% heat-inactivated FBS, 1% Penicillin-Streptomycin, 10 μg/mL blasticidin, and 100 μg/mL Zeocin at 37° C. with 5% CO2. Cells were plated overnight prior to the experiment in a black 384-well Purecoat Amine clear bottom plate (Becton Dickinson Biosciences, San Jose, CA) at 10,000 cells/well in 30 μL growth medium and incubated in a humidified chamber at 37° C. with 5% CO2 overnight. Prior to compound addition, the cell medium was replaced with 40 μL of 1× calcium and magnesium-containing Hank's Balanced Saline Solution (HBSS) (with 20 mM HEPES) and 1:1000 diluted fluorescent calcium indicator (Codex Biosolutions, Gaithersburg, MD). After a 30 minute incubation period at 37° C. and a further 30 minute incubation and equilibration period at room temperature, 20 μL test compound (diluted in 1×HBSS buffer) was added at various concentrations at 0.17% dimethyl sulfoxide (DMSO) final concentration. Changes in fluorescence intensity were measured using a Functional Drug Screening System (FDSS, Hamamatsu, Japan) to determine agonist activities. The cells were then incubated for 30 minutes at room temperature followed by addition of 20 μL of agonist peptide for antagonist activity measurement. […] Compound potency was derived from 11-point concentration-response curves.
row,IC50 [nM],Structure (SMILES)
1,1.4,"COC(=O)NC[C@@H]1Cc2c(ccc3nc(-c4cc(C)cc5nc(OC)cnc45)sc23)O1 [Example 226, (S)-methyl ((2-(2-methoxy-7-methylquinoxalin-5-yl)-7,8-dihydrobenzofuro[5,4-d]thiazol-7-yl)methy 1)carbamate]"
2,1.5,"COc1cnc2c(-c3nc4c(Cl)cc5c(c4s3)OC[C@H](COC(=O)Nc3cncc(C#N)c3)O5)cc(C)cc2n1 [Example 37, (R)-(4-chloro-2-(2-methoxy-7-methylquinoxalin-5-yl)-7,8-dihydro-[1,4]dioxino[2′,3′:3,4]benzo[1,2-d]thiazol-7-yl)methyl (5-cyanopyridin-3-yl)carbamate]"
3,32,"COC(=O)NC[C@]1(C)Cc2c(c(F)cc3nc(-c4cc(C)cc5nc(OC)cnc45)sc23)O1 [Example 240, (S)-methyl ((5-fluoro-2-(2-methoxy-7-methylquinoxalin-5-yl)-7-methyl-7,8-dihydrobenzofuro[5,4-d]thiazol-7-yl)methyl)carbamate]"
4,1.8,"COc1cnc2c(-c3nc4ccc5c(c4s3)OC[C@H](COC(=O)Nc3cccnc3)O5)cc(C)cc2n1 [Example 108, (R)-(2-(2-methoxy-7-methylquinoxalin-5-yl)-7,8-dihydro-[1,4]dioxino[2′,3′:3,4]benzo[1,2-d]thiazol-7-yl)methyl pyridin-3-ylcarbamate]"
5,3.6,"COc1cnc2c(-c3nc4c(Cl)cc5c(c4s3)OC[C@H](COC(=O)Nc3ccncc3)O5)cc(C)cc2n1 [Example 30, (R)-(4-chloro-2-(2-methoxy-7-methylquinoxalin-5-yl)-7,8-dihydro-[1,4]dioxino[2′,3′:3,4]benzo[1,2-d]thiazol-7-yl)methyl pyridin-4-ylcarbamate]"
6,5.8,"COc1cnc2c(-c3nc4cc(F)c5c(c4s3)C[C@H](CNC(=O)OC(C)(C)C)O5)cc(C)cc2n1 [Example 223, (R)-tert-butyl ((5-fluoro-2-(2-methoxy-7-methylquinoxalin-5-yl)-7,8-dihydrobenzofuro[5,4-d]thiazol-7-yl)methyl)carbamate]"
7,1.1,"COc1cnc2c(-c3nc4cc(F)c5c(c4s3)C[C@H](COC(=O)Nc3cncc(F)c3)O5)cc(C)cc2n1 [Example 161, (R)-(5-fluoro-2-(2-methoxy-7-methylquinoxalin-5-yl)-7,8-dihydrobenzofuro[5,4-d]thiazo 1-7-yl)methyl (5-fluoropyridin-3-yl)carbamate]"
8,7.1,"COC(=O)NCC1Cc2c(ccc3nc(-c4cc(C)cc5nc(OC)cnc45)sc23)O1 (stereo not shown) [Example 191, Methyl ((2-(2-methoxy-7-methylquinoxalin-5-yl)-7,8-dihydrobenzofuro[5,4-d]thiazol-7-yl)methy 1)carbamate]"
9,1.4,"COc1cnc2c(-c3nc4c(C)cc5c(c4s3)OCC(COC(=O)Nc3ccc(Cl)nc3)O5)cc(C)cc2n1 (stereo not shown) [Example 115, (2-(2-methoxy-7-methylquinoxalin-5-yl)-4-methyl-7,8-dihydro-[1,4]dioxino[2′,3′:3,4]benzo [1,2-d]thiazol-7-yl)methyl (6-chloropyridin-3-yl)carbamate]"
10,480,"COc1cnc2c(-c3nc4c(Cl)cc5c(c4s3)OC[C@H](COC(=O)Nc3cncc(F)c3)O5)cc(C)cc2n1 [Example 28, (R)-(4-chloro-2-(2-methoxy-7-methylquinoxalin-5-yl)-7,8-dihydro-[1,4]dioxino[2′,3′:3,4]benzo[1,2-d]thiazol-7-yl)methyl (5-fluoropyridin-3-yl)carbamate]"
11,2.1,"COc1cnc2c(-c3nc4c(C)cc5c(c4s3)OCC(COC(=O)Nc3cnc4c(c3)CN(C(=O)OC(C)(C)C)CC4)O5)cc(C)cc2n1 (stereo not shown) [Example 139, tert-butyl 3-((((2-(2-methoxy-7-methylquinoxalin-5-yl)-4-methyl-7,8-dihydro-[1,4]dioxino[2′,3′:3,4]benzo[1,2-d]thiazol-7-yl)methoxy)carbonyl)amino)-7,8-dihydro-1,6-naphthyridine-6(5H)-carboxylate]"
12,50,"COc1cnc2c(-c3nc4c(C)cc5c(c4s3)OC[C@H](COC(=O)Nc3cncc(F)c3)O5)cc(C)cc2n1 [Example 42, (R)-(2-(2-methoxy-7-methylquinoxalin-5-yl)-4-methyl-7,8-dihydro-[1,4]dioxino[2′,3′:3,4]benzo[1,2-d]thiazol-7-yl)methyl (5-fluoropyridin-3-yl)carbamate]"
13,1,"COc1cnc2c(-c3nc4cc(F)c5c(c4s3)C[C@](C)(COC(=O)Nc3cnc(OCCO)nc3)O5)cc(Cl)cc2c1 [Example 286, (R)-(2-(6-chloro-3-methoxyquinolin-8-yl)-5-fluoro-7-methyl-7,8-dihydrobenzofuro[5,4-d]thiazol-7-yl)methyl (2-(2-hydroxyethoxy)pyrimidin-5-yl)carbamate]"
14,4,"COc1cnc2c(-c3nc4c(C)cc5c(c4s3)OCC(COC(=O)Nc3ccc(OCCN(C)C)nc3)O5)cc(C)cc2n1 (stereo not shown) [Example 128, (2-(2-methoxy-7-methylquinoxalin-5-yl)-4-methyl-7,8-dihydro-[1,4]dioxino[2′,3′:3,4]benzo[1,2-d]thiazol-7-yl)methyl (6-(2-(dimethylamino)ethoxy)pyridin-3-yl)carbamate]"
15,0.7,"COc1cnc2c(-c3nc4cc(F)c5c(c4s3)C[C@H](COC(=O)Nc3cccc(C#N)c3)O5)cc(C)cc2n1 [Example 162, (R)-(5-fluoro-2-(2-methoxy-7-methylquinoxalin-5-yl)-7,8-dihydrobenzofuro[5,4-d]thiazol-7-yl)methyl (3-cyanophenyl)carbamate]"
16,6.4,"COc1cnc2c(-c3nc4ccc5c(c4s3)C[C@@H](CNC(=O)O[C@@H]3CCOC3)O5)cc(C)cc2n1 [Example 230, (R)-tetrahydrofuran-3-yl (((S)-2-(2-methoxy-7-methylquinoxalin-5-yl)-7,8-dihydrobenzofuro[5,4-d]thiazol-7-yl)methyl)carbamate]"
17,2.9,"COc1cnc2c(-c3nc4c(C)cc5c(c4s3)OCC(COC(=O)Nc3cnc4[nH]ccc4c3)O5)cc(C)cc2n1 (stereo not shown) [Example 142, (2-(2-methoxy-7-methylquinoxalin-5-yl)-4-methyl-7,8-dihydro-[1,4]dioxino[2′,3′:3,4]benzo[1,2-d]thiazol-7-yl)methyl 1H-pyrrolo[2,3-b]pyridin-5-ylcarbamate]"
18,29,"COc1cnc2c(-c3nc4c(C)cc5c(c4s3)OCC(COC(=O)Nc3cnc(C)nc3)O5)cc(C)cc2n1 (stereo not shown) [Example 79, (2-(2-methoxy-7-methylquinoxalin-5-yl)-4-methyl-7,8-dihydro-[1,4]dioxino[2′,3′:3,4]benzo[1,2-d]thiazol-7-yl)methyl (2-methylpyrimidin-5-yl)carbamate]"
19,30,"COc1cnc2c(-c3nc4cc(F)c5c(c4s3)C[C@@](C)(COC(=O)Nc3cnc(C)nc3)O5)cc(C)cc2n1 [Example 174, (S)-(5-fluoro-2-(2-methoxy-7-methylquinoxalin-5-yl)-7-methyl-7,8-dihydrobenzofuro[5,4-d]thiazol-7-yl)methyl (2-methylpyrimidin-5-yl)carbamate]"
20,10,"COc1cnc2c(-c3nc4c(Cl)cc5c(c4s3)OC[C@H](COC(=O)Nc3ccccc3)O5)cc(C)cc2n1 [Example 26, (R)-(4-chloro-2-(2-methoxy-7-methylquinoxalin-5-yl)-7,8-dihydro-[1,4]dioxino[2′,3′:3,4]benzo[1,2-d]thiazol-7-yl)methyl phenylcarbamate]"
21,9.1,"COc1cnc2c(-c3nc4c(C(O)C5(C(F)(F)F)CC5)cc5c(c4s3)OCCO5)cc(C)cc2n1 (stereo not shown) [Example 279, (2-(2-methoxy-7-methylquinoxalin-5-yl)-7,8-dihydro-[1,4]dioxino[2′,3′:3,4]benzo[1,2-d]thiazol-4-yl)(1-(trifluoromethyl)cyclopropyl)methanol]"
22,9,"COc1cnc2c(-c3nc4ccc5c(c4s3)OC[C@H](COC(=O)Nc3cnc(C)nc3)O5)cc(F)cc2c1 [Example 281, (R)-(2-(6-fluoro-3-methoxyquinolin-8-yl)-7,8-dihydro-[1,4]dioxino[2′,3′:3,4]benzo[1,2-d]thiazol-7-yl)methyl (2-methylpyrimidin-5-yl)carbamate]"
